Assay results: ChEMBL document CHEMBL4359843, “Linear and Rationally Designed Stapled Peptides Abrogate TLR4 Pathway and Relieve Inflammatory Symptoms in Rheumatoid Arthritis Rat Model” (J Med Chem, 2019)
Calls of active or inactive are those of the source. The calls are words filed in the database; no cut-off is given here.

What was measured:
Toll-like receptor 4 = Toll-like receptor 4 (Homo sapiens, UniProt O00206); assay: Binding affinity to recombinant human TLR4 using phage displayed compound by Phage-ELISA
RAW264.7 [1] = assay: Cytotoxicity against mouse RAW264.7 cells assessed as reduction in cell viability at 100 uM after 24 hrs by MTT assay; assay type: cell-based; conditions: raw264.7, 24 h
RAW264.7 [2] = assay: Cytotoxicity against mouse RAW264.7 cells assessed as reduction in cell viability at 20 to 80 uM after 24 hrs by MTT assay; assay type: cell-based; conditions: raw264.7, 24 h

Chain of Toll-like receptor 4 (O00206 whole entry): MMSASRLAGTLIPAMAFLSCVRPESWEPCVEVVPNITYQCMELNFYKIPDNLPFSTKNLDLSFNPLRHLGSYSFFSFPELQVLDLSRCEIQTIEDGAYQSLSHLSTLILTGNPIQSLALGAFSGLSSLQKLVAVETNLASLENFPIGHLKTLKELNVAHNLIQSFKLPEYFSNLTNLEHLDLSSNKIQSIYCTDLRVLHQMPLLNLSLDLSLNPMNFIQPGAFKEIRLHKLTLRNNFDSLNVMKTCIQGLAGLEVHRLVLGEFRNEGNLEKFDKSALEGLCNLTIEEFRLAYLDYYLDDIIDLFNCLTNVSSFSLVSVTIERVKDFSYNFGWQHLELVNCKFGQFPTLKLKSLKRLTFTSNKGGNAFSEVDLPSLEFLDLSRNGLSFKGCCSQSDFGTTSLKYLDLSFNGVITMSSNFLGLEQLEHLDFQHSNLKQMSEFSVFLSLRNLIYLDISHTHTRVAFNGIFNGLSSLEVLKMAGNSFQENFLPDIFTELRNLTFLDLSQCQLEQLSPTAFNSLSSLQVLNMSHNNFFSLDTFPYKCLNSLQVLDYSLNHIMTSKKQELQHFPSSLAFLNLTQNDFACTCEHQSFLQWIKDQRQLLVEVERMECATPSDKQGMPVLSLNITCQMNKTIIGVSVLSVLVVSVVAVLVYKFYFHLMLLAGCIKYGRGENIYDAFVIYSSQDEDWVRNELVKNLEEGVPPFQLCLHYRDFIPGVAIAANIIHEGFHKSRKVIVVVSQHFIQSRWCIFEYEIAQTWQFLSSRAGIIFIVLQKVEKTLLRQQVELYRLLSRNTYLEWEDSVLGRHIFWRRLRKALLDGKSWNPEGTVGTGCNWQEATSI

Row | Activity (Toll-like receptor 4) | Substance | Activity (RAW264.7 [1]) | Activity (RAW264.7 [2])
1 | Active | H-FGRYFPCLNWLG-OH | Toxic | Non-Toxic
2 | Active | H-HWWHFHSLRWLG-OH | Toxic | Non-Toxic
3 | Active | H-FWIFSRYPGASA-OH | Toxic | Non-Toxic
4 | Active | H-LWWCFHSLRWLG-OH | Toxic | Non-Toxic
